Assay results: ChEMBL document CHEMBL1201862, “PubChem BioAssay data set” (2004)
Calls of active or inactive are those of the source. Cut-off read from the data, not from the text of the source, for most assays here: actives have a measured EC50 and inactives only a lower limit.

What was measured:
[1] = target: Dual specificity tyrosine-phosphorylation-regulated kinase 1A (Rattus norvegicus, UniProt Q63470); assay type: biochemical, Homo sapiens
[2] = target: T1, Long-chain-fatty-acid--AMP ligase FadD28 (Mycobacterium tuberculosis, UniProt P9WQ59); assay: Fluorescence polarization aasay to screen for inhibitors that compete for the binding of FadD28 to a bisubstrate Measured in Biochemical System Using Plate Reader - 2147-01_Inhibitor_Dose_CherryPick_Activity.; assay type: functional, Mycobacterium tuberculosis H37Rv
T1 sequence (P9WQ59 whole entry): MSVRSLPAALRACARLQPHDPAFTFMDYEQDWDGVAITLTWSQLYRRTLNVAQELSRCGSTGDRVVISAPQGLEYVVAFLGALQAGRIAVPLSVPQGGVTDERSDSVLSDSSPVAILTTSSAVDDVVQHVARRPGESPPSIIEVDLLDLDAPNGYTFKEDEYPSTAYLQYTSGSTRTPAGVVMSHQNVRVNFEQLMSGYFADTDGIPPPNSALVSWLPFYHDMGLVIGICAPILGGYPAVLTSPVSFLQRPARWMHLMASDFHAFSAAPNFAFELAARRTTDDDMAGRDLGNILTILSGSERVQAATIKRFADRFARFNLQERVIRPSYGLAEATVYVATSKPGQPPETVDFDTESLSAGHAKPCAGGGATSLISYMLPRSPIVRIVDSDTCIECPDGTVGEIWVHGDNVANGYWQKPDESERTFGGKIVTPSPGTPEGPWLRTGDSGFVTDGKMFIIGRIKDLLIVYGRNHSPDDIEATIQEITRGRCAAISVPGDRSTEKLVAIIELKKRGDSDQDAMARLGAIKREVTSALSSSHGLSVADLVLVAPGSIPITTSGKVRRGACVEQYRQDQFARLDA

[3] = Luminescence Cell-Based Dose Response to Identify Activators of 5'UTR Stem-Loop Driven Prion Protein mRNA Translation in H4-C Neuroglioblastoma Cells. [Related pubchem assays: 1829 (Project Summary), 1814 (Primary HTS)]; assay type: functional
[4] = Luminescence Cell-Based Dose Confirmation HTS to Identify Activators of 5'UTR Stem-Loop Driven Alpha-Synuclein mRNA Translation in H4 Neuroglioblastoma Cells. [Related pubchem assays: 1829 (Project Summary), 1814 (Primary HTS)]; assay type: functional
[5] = Luminescence Cell-Based Dose Response HTS to Identify Activators of Luciferase Translation or Activity in H4 […] Cells. [Related pubchem assays: 1829 (Project Summary), 1814 (Primary HTS)]; assay type: functional
[6] = tested on: Streptococcus sp. 'group A'; assay: Streptococcus pyogenes SK(-)GAS viability under kanamycin – luminescence, BacTiterGlo, confirmation, counter-screen for streptokinase expression inhibitor project, dose response (AID 1900); assay type: functional, organism-based
H4 = assay: Luminescence Cell-Based Dose Response HTS to Identify Activators of 5'UTR Stem-Loop Driven Prion Protein mRNA Translation in H4 Neuroglioblastoma Cells. [Related pubchem assays: 1829 (Project Summary), 1814 (Primary HTS)]; assay type: functional; details: Homo sapiens
Streptokinase A = target: T2, Streptokinase A (Streptococcus pyogenes serotype M1, UniProt P10520); assay: viability-normalized secreted streptokinase activity reduction – plasminogen activation absorbance, OD405, dose response (AID 1914); assay type: functional, Streptococcus pyogenes M1 GAS;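 note: secreted streptokinase activity via plasminogen activation per viability signal from cell pellet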
T2 sequence (P10520 whole entry): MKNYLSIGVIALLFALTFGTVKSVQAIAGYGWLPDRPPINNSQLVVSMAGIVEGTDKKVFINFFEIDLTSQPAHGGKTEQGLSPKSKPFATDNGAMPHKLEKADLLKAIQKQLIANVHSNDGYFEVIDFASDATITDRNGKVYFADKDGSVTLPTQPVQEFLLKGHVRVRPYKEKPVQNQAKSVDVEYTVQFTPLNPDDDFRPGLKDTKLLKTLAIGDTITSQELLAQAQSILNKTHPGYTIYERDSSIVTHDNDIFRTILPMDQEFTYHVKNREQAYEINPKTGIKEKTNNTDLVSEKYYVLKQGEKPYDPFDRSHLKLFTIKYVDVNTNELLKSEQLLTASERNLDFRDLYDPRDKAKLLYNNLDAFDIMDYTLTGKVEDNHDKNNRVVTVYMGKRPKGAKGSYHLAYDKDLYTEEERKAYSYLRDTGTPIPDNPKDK

[7] = Luminescence Cell-Based Dose Response to Identify Activators of Luciferase Translation or Activity in H4-C Neuroglioblastoma Cells. [Related pubchem assays: 1829 (Project Summary), 1814 (Primary HTS)]; assay type: functional
[8] = Luminescence Cell-Based Dose Confirmation to Identify Activators of 5'UTR Stem-Loop Driven Alpha-Synuclein mRNA Translation in H4 Neuroglioblastoma Cells. [Related pubchem assays: 1829 (Project Summary), 1814 (Primary HTS)]; assay type: functional
Streptococcus = assay: GAS UMAA2166 growth inhibition – luminescence, BacTiterGlo, counter-screen for streptokinase expression inhibitor project, dose response (AID 1915); assay type: functional, organism-based;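 note: potency for reduction of bacterial viability or growth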
HeLa = assay: ATP-based viability loss in HeLa cells – cell-based, CellTiter-Glo luminescence, cherry-pick samples, cytotoxicity control for MITF activator project, dose response (AID 540259); assay type: functional; details: Homo sapiens
[9] = target: Beta-2 adrenergic receptor (Homo sapiens, UniProt P07550); assay: ADRB2 activation measured by internalization – cell-based, FAP fluorogen, flow cytometry, cherry pick 1, dose response (AID 588763); assay type: functional
Chain of Beta-2 adrenergic receptor (P07550 whole entry): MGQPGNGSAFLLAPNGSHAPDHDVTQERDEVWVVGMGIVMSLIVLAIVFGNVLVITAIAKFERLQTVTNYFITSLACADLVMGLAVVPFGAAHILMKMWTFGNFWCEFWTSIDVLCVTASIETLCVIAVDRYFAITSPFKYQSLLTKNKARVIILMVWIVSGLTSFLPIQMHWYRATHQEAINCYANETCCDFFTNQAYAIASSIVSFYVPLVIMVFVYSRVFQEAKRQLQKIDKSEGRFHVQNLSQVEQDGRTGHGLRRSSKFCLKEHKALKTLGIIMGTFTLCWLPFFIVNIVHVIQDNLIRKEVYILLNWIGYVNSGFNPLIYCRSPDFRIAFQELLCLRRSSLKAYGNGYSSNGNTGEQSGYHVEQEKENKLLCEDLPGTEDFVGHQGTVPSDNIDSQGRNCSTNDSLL

SMILES	AC50 [1]	AC50 [2]	EC50 [3]	EC50 [4]	EC50 [5]	EC50 [6]	EC50 (H4)	EC50 (Streptokinase A)	EC50 [7]	EC50 [8]	EC50 (Streptococcus)	AC50 (HeLa)	EC50 [9]
Oc1ccc(/C=N/n2c(S)nnc2C2CCCCC2)c(O)c1	930 nM (active)	48800 nM (active)											
Cc1cccc2nc(COc3ccc4ccccc4c3Br)cn12			638 nM (active)	167 nM (active)	< 100 nM (inconclusive)	12700 nM (active)	> 120000 nM (not active)	> 150000 nM (not active)	561 nM (active)	340 nM (active)	> 150000 nM (not active)	73000 nM (active)	3710 nM (active)
CCCc1ccc(OCc2nc(-c3ccc(NC(=O)c4ccco4)cc3)no2)cc1													161 nM (active)
